Measurements reported in patent US11066395B2, “Dimethylaminoethanol salt of a GLP-1 receptor modulator” (RECEPTOS LLC, priority 2016, dated 2021).
Counter-ions that a name gives are not always drawn. Like-named read-outs stand apart in the source and are kept apart here. Marks after values point to notes of the source that are not given here.

Columns and labels:
[1] = counterion base; cited from earlier work
[2] = Thermodynamic solubility testing in pH 6.8 phosphate buffer; type: physicochemical; settings: for solubility at 24 h: phosphate buffer, pH 6.8, aqueous buffer, thermodynamic from solid
Method: 0.5 mL of that buffer is then added to 5-10 mg of each crystalline salt hit. The pH of the resultant slurries are measured after 10 minutes and, if needed, adjusted back to pH 6.8 using the individual buffer component. Samples were stirred at room temperature for 24 hours, filtered, and analyzed for concentration by HPLC.

[3] = Salt screen: storage of salts at 40° C./75% RH for 7 days, re-analysis by XRPD
Method: These resultant suspensions were temperature cycled between ambient temperature (22° C.) and 40° C. in 4 hour cycles for 72 hours. Samples were analyzed by XRPD and any remaining solid was isolated by filtration using a centrifuge and tubes with a 0.45 m filter insert. Isolated solids were allowed to dry at ambient condition and analyzed by ^1H NMR.

[4] = Stress testing of dimethylaminoethanol salt (40° C./75% RH and 80° C./ambient, 1 week), XRPD and HPLC; type: physicochemical
Method: To better understand the physical and chemical stability of the dimethylaminoethanol salt, the salt was placed under stressed condition (40° C./75% RH and 80° C./Ambient) for 1 week. The solids were then removed and analyzed via both XRPD and HPLC to determine physical and chemical stability, respectively.

[5] = pH solubility curve (buffers pH 1-pH 8, deionized water); type: physicochemical
Method: A range of buffers were made up (pH 1-pH 8) to understand the effect of pH on the measured solubility. In each case the pH is measured prior to isolation to ensure most accurate data. […] All solids were characterized by XRPD post solubility determination and shown all to be amorphous (FIG. 44), which is common when a solid is placed into aqueous conditions.

[6] = Hygroscopicity by DVS/GVS with XRPD post GVS; type: physicochemical
Text: To determine the hygroscopicity of the dimethylaminoethanol salt the sample was submitted for DVS (FIG. 39).
The thermal event likely corresponds to the melt of the crystalline material.

[7] = Hydration study: slurry in aqueous solvents containing 10% by volume of water, XRPD; type: physicochemical; settings: acetone, acetonitrile or methanol/water 90/10 by volume
Method: To understand the potential of forming hydrates the dimethylaminoethanol salt was slurried in a series of aqueous solvents, containing 10% by volume of water.
When the solids were analyzed by XRPD post hydration study (FIG. 41), the majority of solids had been rendered amorphous. Only the acetone/water mixture had any signs of crystallinity, which corresponded to the input material. […] The generation of amorphous material could be due to the high affinity of the molecule (RP-101) with solvents and water.

## CNC[C@H](O)[C@@H](O)[C@H](O)[C@H](O)CO [N-Methylglucamine, (2R,3R,4R,5S)-6-(methylamino)hexane-1,2,3,4,5-pentaol]
[1]
  LogP: −3.37

## CCC1CCC(C2CC=C(c3cnc(-c4ccc(CC(NC(=O)c5ccc(C(C)(C)C)s5)C(=O)N5CC(C(=O)O)C5)cc4)nc3)CC2)CC1 (centres unmarked) [meglumine-RP-101]
[2]; aqueous, pH 6.8 phosphate buffer, room temperature, 24 hours, HPLC, listed as Meglumine (DCM)
  Solubility: 160 µg/mL
[2]; aqueous, pH 6.8 phosphate buffer, room temperature, 24 hours, HPLC, read-out: Solubility
  solubility at 24 h: 303 µg/mL
[2]; material obtained from 1,4-dioxane, read-out: Solubility at pH 6.8
  solubility at 24 h: 303 µg/mL
[2]; material obtained from DCM, read-out: Solubility at pH 6.8
  solubility at 24 h: 160 µg/mL
[3]; material obtained from 1,4-dioxane
  Stability at 40° C./75% RH (XRPD): Only small changes
[3]; material obtained from DCM
  Stability at 40° C./75% RH (XRPD): decrease in crystallinity
[3]; material obtained from MEK
  Stability at 40° C./75% RH (XRPD): Only small changes

## C[N+](C)(C)CCO.[OH-] [Choline hydroxide]
[1]
  LogP: −3.70
  pKa 1: 11.00

## NCCCC[C@H](N)C(=O)O [L-Lysine]
[1]
  LogP: −1.04
  pKa 3: 2.16*

## CCC1CCC(C2CC=C(c3cnc(-c4ccc(CC(NC(=O)c5ccc(C(C)(C)C)s5)C(=O)N5CC(C(=O)O)C5)cc4)nc3)CC2)CC1 (centres unmarked) [deanol-RP-101, 2-hydroxy-N,N-dimethylethanaminium 1-(2-(5-(tert-butyl)-thiophene-2-carboxamido)-3-(4-(5-(4′-ethyl-[1,1′-bi(cyclohexan)]-3-en-4-yl)-pyrimidin-2-yl)phenyl)propanoyl)azetidine-3-carboxylate salt]
[4]; 40° C./75% RH
  Crystalline form by XRPD post stability (physical stability): same crystalline form was present
  Crystallinity by XRPD post stability: decrease in crystallinity
  Purity by HPLC post stress (chemical stability): 97.3%
[4]; 80° C./ambient
  Crystalline form by XRPD post stability (physical stability): same crystalline form was present
  Purity by HPLC post stress (chemical stability): 96.8%
[5]; acidic conditions
  Solubility: low
[5]; basic conditions
  Solubility: rises significantly
[5]; deionized water
  Solubility: relatively high
[6]
  Hygroscopicity (DVS/GVS): the process was reversible and did not indicate the conversion to a hydrate
  XRPD post GVS compared to input material: no change seen
[7]
  Hydrate formation (XRPD post hydration study): no obvious hydrate
